ChEMBL document CHEMBL3392964, “Design, synthesis, and evaluation of novel imidazo[1,2-a][1,3,5]triazines and their derivatives as focal adhesion kinase inhibitors with antitumor activity” (J Med Chem, 2015)
pIC50: −log10 of the molar value.

Target: Focal adhesion kinase 1 (Homo sapiens, UniProt Q05397)
Assay: Inhibition of FAK (unknown origin) using ULight-poly GT as substrate after 1.6 hrs by TR-FRET assay

Focal adhesion kinase 1, sequence (Q05397 whole entry): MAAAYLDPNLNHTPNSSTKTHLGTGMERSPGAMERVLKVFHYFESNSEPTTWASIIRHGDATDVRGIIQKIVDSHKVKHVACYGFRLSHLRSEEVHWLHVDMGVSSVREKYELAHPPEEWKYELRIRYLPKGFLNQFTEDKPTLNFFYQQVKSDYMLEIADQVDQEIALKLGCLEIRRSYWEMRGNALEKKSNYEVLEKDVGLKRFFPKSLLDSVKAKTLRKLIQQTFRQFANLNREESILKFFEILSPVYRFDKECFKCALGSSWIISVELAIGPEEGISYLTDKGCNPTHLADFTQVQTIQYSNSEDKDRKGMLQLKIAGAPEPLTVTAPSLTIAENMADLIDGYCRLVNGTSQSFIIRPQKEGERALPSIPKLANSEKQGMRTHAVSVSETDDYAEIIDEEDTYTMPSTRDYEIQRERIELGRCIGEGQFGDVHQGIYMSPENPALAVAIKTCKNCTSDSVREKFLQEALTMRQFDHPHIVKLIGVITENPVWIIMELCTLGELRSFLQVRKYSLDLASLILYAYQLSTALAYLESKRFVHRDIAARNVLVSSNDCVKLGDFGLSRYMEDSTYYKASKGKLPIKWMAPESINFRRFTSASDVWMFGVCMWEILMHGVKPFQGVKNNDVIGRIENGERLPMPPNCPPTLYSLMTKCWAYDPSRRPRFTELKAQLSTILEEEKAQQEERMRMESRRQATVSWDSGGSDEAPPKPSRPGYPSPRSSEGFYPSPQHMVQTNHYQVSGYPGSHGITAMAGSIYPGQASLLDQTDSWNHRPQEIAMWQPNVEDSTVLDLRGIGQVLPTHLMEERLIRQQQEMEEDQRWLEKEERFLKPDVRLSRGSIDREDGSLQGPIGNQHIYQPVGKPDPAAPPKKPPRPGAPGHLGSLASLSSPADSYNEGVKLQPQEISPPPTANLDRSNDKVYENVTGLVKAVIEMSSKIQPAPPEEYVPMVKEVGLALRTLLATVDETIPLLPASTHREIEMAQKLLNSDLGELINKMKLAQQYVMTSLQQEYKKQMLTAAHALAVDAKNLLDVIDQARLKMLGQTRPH

pIC50	SMILES
6.06	C=COC(=O)NCc1ccc(Nc2nc(Nc3ccccc3C(=O)NC)nc3nccn23)cc1
6.30	C=COC(=O)NCc1ccc(Nc2nc(Nc3ccccc3C(=O)OC)n3ccnc3n2)cc1
6.66	CNC(=O)c1ccccc1Nc1nc(Nc2ccc(CN)cc2)n2ccnc2n1
6.04	CS(=O)(=O)Nc1ccccc1Nc1nc(Nc2ccc(C#N)cc2)nc2nccn12
5.76	CS(=O)(=O)Nc1ccccc1Nc1nc(Nc2ccc(C#N)cc2)n2ccnc2n1
6.62	COC(=O)c1ccccc1Nc1nc(Nc2ccc(CN)cc2)nc2nccn12
5.95	CNC(=O)c1ccccc1Nc1nc(Nc2ccc(C#N)cc2)n2ccnc2n1
6.51	CNC(=O)c1ccccc1Nc1nc(Nc2cc(OC)c(OC)c(OC)c2)n2ccnc2n1
5.98	C=COC(=O)NCc1ccc(Nc2nc(Nc3ccccc3C(=O)OC)nc3nccn23)cc1
6.29	CNC(=O)c1ccccc1Nc1nc(Nc2ccc(N3CCOCC3)cc2OC)n2ccnc2n1
6.15	CNC(=O)c1ccccc1Nc1nc(Nc2ccc(C#N)cc2)nc2nccn12
6.55	COC(=O)c1ccccc1Nc1nc(Nc2ccc(CN)cc2)n2ccnc2n1

The remaining lines, values behind:

SMILES	pIC50
COC(=O)c1cccc(Nc2nc(Nc3cc(OC)c(OC)c(OC)c3)n3ccnc3n2)c1	5.92
COC(=O)c1cccc(Nc2nc(Nc3cc(OC)c(OC)c(OC)c3)nc3nccn23)c1	6.06
COc1cc(Nc2nc(Cc3ccccc3NS(C)(=O)=O)nc3nccn23)cc(OC)c1OC	6.08
CNC(=O)c1ccccc1Cc1nc(Nc2cc(OC)c(OC)c(OC)c2)nc2nccn12	6.74
COc1cc(NC2=Nc3nccn3C(Cc3ccccc3NC(C)=O)N2)cc(OC)c1OC (configuration not stated)	5.05
COC(=O)c1ccccc1Nc1nc(Nc2cc(OC)c(OC)c(OC)c2)n2ccnc2n1	6.24
COC(=O)c1ccccc1Nc1nc(Nc2cc(OC)c(OC)c(OC)c2)nc2nccn12	6.55
COC(=O)c1ccccc1Nc1nc(Nc2ccc(N3CCOCC3)cc2OC)n2ccnc2n1	6.24
COC(=O)c1ccccc1Nc1nc(Nc2ccc(N3CCOCC3)cc2OC)nc2nccn12	6.43
COC(=O)c1ccccc1Cc1nc(Nc2cc(OC)c(OC)c(OC)c2)nc2nccn12	6.43
